In patent publication US11104661B1, “Inhibiting human integrin (α-4) (β-7)” (Morphic Therapeutic, Inc., priority 2019, dated 2021):

Biological target: T1, α4β7 (Homo sapiens, UniProt P13612+P26010)
T1 construct: endogenous in cells; host or cells: RPMI 8866 cells
T1 sequence (P13612 34-1032): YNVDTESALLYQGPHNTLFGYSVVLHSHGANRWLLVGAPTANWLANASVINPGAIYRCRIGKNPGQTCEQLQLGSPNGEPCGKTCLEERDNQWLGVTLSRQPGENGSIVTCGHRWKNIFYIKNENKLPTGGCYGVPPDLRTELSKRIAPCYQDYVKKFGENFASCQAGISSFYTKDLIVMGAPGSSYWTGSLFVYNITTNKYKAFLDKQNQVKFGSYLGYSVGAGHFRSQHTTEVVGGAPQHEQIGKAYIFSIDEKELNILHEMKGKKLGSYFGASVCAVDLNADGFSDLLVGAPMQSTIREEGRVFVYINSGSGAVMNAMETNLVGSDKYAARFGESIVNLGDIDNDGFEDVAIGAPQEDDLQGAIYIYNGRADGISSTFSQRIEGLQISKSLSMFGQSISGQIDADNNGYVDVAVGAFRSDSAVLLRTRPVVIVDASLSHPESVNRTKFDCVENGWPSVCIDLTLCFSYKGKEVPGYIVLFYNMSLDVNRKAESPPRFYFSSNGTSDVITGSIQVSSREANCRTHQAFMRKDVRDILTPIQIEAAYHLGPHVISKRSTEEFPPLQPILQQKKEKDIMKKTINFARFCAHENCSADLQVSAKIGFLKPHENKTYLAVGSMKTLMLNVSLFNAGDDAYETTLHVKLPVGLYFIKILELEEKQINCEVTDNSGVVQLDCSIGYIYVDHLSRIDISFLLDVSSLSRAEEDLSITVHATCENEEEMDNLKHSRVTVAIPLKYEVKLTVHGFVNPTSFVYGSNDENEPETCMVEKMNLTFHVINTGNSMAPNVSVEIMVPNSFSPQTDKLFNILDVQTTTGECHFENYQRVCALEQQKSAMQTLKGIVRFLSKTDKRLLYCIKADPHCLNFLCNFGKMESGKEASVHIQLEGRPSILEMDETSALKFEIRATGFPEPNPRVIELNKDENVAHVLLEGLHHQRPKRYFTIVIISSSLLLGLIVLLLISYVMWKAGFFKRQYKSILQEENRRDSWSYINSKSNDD
T1 sequence (P26010 20-798): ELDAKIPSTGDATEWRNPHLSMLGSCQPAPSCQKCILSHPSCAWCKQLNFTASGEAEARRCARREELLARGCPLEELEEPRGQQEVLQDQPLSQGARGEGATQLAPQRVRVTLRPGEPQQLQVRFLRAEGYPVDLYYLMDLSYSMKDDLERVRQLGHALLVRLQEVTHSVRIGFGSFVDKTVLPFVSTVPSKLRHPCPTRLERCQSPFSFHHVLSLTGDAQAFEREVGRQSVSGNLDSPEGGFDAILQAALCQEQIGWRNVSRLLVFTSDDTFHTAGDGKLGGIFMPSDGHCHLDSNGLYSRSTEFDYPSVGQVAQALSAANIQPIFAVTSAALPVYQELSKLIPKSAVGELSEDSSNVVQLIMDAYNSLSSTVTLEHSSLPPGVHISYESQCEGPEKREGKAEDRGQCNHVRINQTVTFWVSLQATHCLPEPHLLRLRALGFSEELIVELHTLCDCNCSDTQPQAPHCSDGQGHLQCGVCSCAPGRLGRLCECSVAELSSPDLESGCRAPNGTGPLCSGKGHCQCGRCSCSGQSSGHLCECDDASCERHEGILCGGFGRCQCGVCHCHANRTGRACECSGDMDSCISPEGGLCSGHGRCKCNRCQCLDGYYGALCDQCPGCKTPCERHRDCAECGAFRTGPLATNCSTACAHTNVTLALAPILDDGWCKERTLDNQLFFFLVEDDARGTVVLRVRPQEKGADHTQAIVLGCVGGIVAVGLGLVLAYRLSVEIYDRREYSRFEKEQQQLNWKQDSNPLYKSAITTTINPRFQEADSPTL
Experiment: Cell adhesion assay, RPMI8866 cells on MAdCAM coated plates (Example 7)
Assay type: cell-based
Settings: RPMI8866 cells adhering to recombinant human MAdCAM; Table 3; read-out: CA Assay (Example 7)
Experimental: Three in vitro assays were used to examine the α4β7 mechanistic process used by cells: 1) ligand:receptor affinity, 2) the avidity of those interactions on a cell's surface, and 3) how those interactions fare under an imposing force. In Example 5, a Fluorescence Polarization (FP) assay is used to measure compound activity through binding competition with the fluorescein-labeled peptide. In Example 6, the potency of compounds against α4β7 is measured in the cell-based ligand binding assay (LBA), using RPMI 8866 cells incubated with the compound samples in competition with soluble MAdCAM-1 ligand. In Example 7, activity of compounds is evaluated in a cell adhesion assay that mechanistically tests what occurs in vivo when trafficking cells utilize α4β7 to adhere to MAdCAM-1 expressing HEVs of the gut during the extravasation process. In the cell adhesion assay of Example 7, a MAdCAMI1-(Fc) is coated on plastic, and α4β7 expressing cells (RPMI-8866) are allowed to adhere to the coated surface in the presence of the test compounds. Next, the force of washing with buffer is applied to cells thereby testing the strength of that adhesion. Unattached cells are removed and the remaining adherent cells are quantified.
Example 7 describes a cell adhesion assay.
To each well of a 96 well plate, 100 ug of recombinant human MAdCAM in 100 ul PBS is added and incubated overnight at 4° C. After incubation MAdCAM is removed by aspiration and 200 ul of PBS+1% BSA is added to block the plate for 2 hours at 37° C. and 5% CO2. During this incubation dilution curves of compound are made in 100% DMSO in 96 well V bottom plates. 1.75 ul of diluted compounds are then transferred to a new 96 well U bottom plate containing 20 ul of assay media (phosphate free DMEM+25 mM HEPES+1% BSA). To this an additional 155 ul of assay media is added with mixing by pipetting up and down. This mixture is allowed to incubate for 15 minutes at 37° C. and 5% CO2. After incubation 175 ul of assay media containing 2e6/mL RPMI8866 cells is added to compound containing wells without mixing and plate is allowed to incubate for another 15 minutes at 37° C. and 5% CO2. During this incubation MAdCAM coated plates are removed from incubator and washed twice with 200 ul PBS+0.1% BSA. […] This plate is then incubated at 37° C. and 5% CO2 for 1 hour. After incubation plates are washed twice with 200 ul and once with 50 ul of phenol free RPMI+1% BSA. A final 50 ul of phenol free RPMI+1% BSA is added to wells after last wash. Next 50 ul of Promega cell titer glow is added to the wells. Plate is incubated on shaker for 2 minutes at 200 RPM followed by another 8 minutes off shaker before having the luminescence read on a Biotek Citation 5 plate reader. Raw data is converted to % inhibition compared to bottom of curve and analyzed using a 4-parameter non linear curve in Prism to determine IC50 and IC90.

| IC50 [nM] | SMILES |
| --- | --- |
| < 5 | Cc1cc(-c2c(C)ccc(F)c2C)cc([C@H](CC(=O)O)NC(=O)C(CC(C)C)n2cc(CCN3CCC3)c(C(F)(F)F)cc2=O)c1F (single isomer, unassigned) [AF-P2] |
| < 5 | Cc1cccc(C)c1-c1cc([C@H](CC(=O)O)NC(=O)C(CC(C)C)n2cc(CCN3CCC3)c(C(F)(F)F)cc2=O)c(F)c(C(F)(F)F)c1 (single isomer, unassigned) [G-P2] |
| < 5 | Cc1cc(C)c(-c2cc(C)c(F)c([C@H](CC(=O)O)NC(=O)C(CC(C)C)n3cc(CCN(C)C)c(C(F)(F)F)cc3=O)c2)c(C)c1 (single isomer, unassigned) [AC-P2] |
| < 5 | Cc1cc(-c2c(C)cccc2C)cc([C@H](CC(=O)O)NC(=O)C(CC(C)C)n2cc(CCN3CC(F)C3)cc(F)c2=O)c1F (single isomer, unassigned) [AV-P2] |

Same assay, conditions: RPMI8866 cells adhering to recombinant human MAdCAM; Table 4 comparative compounds; read-out: CA Assay (Example 7)

| IC50 [nM] | SMILES |
| --- | --- |
| 10 to 50 | Cc1ccn([C@@H](CC(C)C)C(=O)N[C@@H](CC(=O)O)c2cncc(-c3c(C)cccc3C)c2)c(=O)c1 |
| 5 to 10 | Cc1cccc(C)c1-c1cccc([C@H](CC(=O)O)NC(=O)[C@H](CC(C)C)n2cc(CCN(C)C)ccc2=O)c1 |
| > 500 | CC(C)C[C@@H](C(=O)N[C@@H](CC(=O)O)c1ccc(-c2ccc(F)cc2)cc1)n1cc(CCN(C)C)c(C(F)(F)F)cc1=O |
| 10 to 50 | Cc1cccc(C)c1-c1cccc([C@H](CC(=O)O)NC(=O)[C@H](CC(C)C)n2ccc(CCN(C)C)cc2=O)c1 |
| > 50 | Cc1cccc(C)c1-c1cccc([C@H](CC(=O)O)NC(=O)[C@H](CC(C)C)n2cc(CN3CC(F)C3)ccc2=O)c1 [drawing 577] |
| > 500 | CC(C)C[C@@H](C(=O)N[C@@H](CC(=O)O)c1ccc(-c2ccccc2)cc1)n1cc(CCN(C)C)c(C(F)(F)F)cc1=O |
| 10 to 50 | Cc1cccc(C)c1-c1cccc([C@H](CC(=O)O)NC(=O)[C@H](CC(C)C)n2cc(CN3CC[C@@H](F)C3)ccc2=O)c1 |
| > 50 | Cc1cccc(C)c1-c1cccc([C@H](CC(=O)O)NC(=O)[C@H](CC(C)C)n2cc(CN3CC(F)C3)ccc2=O)c1 [drawing 572] |
| > 500 | COC[C@@H](C(=O)N[C@@H](CC(=O)O)c1cccc(-c2c(C)cccc2C)c1)n1ccc(C)cc1=O |
| > 500 | Cc1ccccc1-c1cccc([C@H](CC(=O)O)NC(=O)[C@H](CC(C)C)n2cccc(C)c2=O)c1 |
| > 50 | Cc1cccc(C)c1-c1cncc([C@H](CC(=O)O)NC(=O)C(CC(C)C)n2cc(C(F)(F)F)ccc2=O)c1 (stereo partly drawn) |
| > 500 | CC(C)C[C@@H](C(=O)N[C@@H](CC(=O)O)c1ccc(-c2ccc(F)cc2)cc1)n1cc(CCN2CC(F)C2)cc(F)c1=O |
| > 500 | Cc1ccccc1-c1cc([C@H](CC(=O)O)NC(=O)[C@H](CC(C)C)n2ccccc2=O)ccc1C |
| > 50 | Cc1cccc(C)c1-c1cccc([C@H](CC(=O)O)NC(=O)[C@H](CC(C)C)n2cc(CN3CC(F)C3)ccc2=O)c1 [drawing 604] |
| > 100 | Cc1cccc(C)c1-c1cccc([C@H](CC(=O)O)NC(=O)[C@H](CC(C)C)n2cccc(CCN(C)C)c2=O)c1 |
| > 500 | Cc1cccc(C)c1-c1cc([C@H](CC(=O)O)NC(=O)[C@H](CC(C)C)n2ccccc2=O)ccn1 |
| > 50 | Cc1cccc(C)c1-c1cccc([C@H](CC(=O)O)NC(=O)[C@H](CC(C)C)n2cc(CN3CC(F)C3)ccc2=O)c1 [drawing 589] |
| > 50 | Cc1cccc(C)c1-c1cccc([C@H](CC(=O)O)NC(=O)[C@H](CC(C)C)n2cc(CN3CC(F)C3)ccc2=O)c1 [drawing 585] |
| > 500 | Cc1ccccc1-c1cccc([C@H](CC(=O)O)NC(=O)[C@H](CC(C)C)n2ccncc2=O)c1 |
| < 5 | Cc1cccc(C)c1-c1cccc([C@H](CC(=O)O)NC(=O)[C@H](CC(C)C)n2cc(CN3CC(F)C3)ccc2=O)c1 [drawing 599] |
| > 50 | Cc1cccc(C)c1-c1cncc([C@H](CC(=O)O)NC(=O)[C@H](CC(C)C)n2cc(CN3CC(F)C3)ccc2=O)c1 |
| > 500 | COc1cccc(F)c1-c1cccc([C@H](CC(=O)O)NC(=O)[C@H](CC(C)C)n2cnc3ccccc3c2=O)c1 |
| > 500 | Cc1ccccc1-c1cc([C@H](CC(=O)O)NC(=O)C(CC(C)C)n2ccccc2=O)ccn1 (stereo partly drawn) |
